In one series the test system is nursery pigs. The experiment in a line: Growth rate and feed conversion in freshly weaned nursery pigs fed supplemented feed. Type of series: in vivo. Conditions: 0.2 mg/kg feed. As to the method: The objective of this experiment was to evaluate if supplementation of feed with L-lactate-D-alanine-L-glutamine palmityl ester (LDPP) at 0.2 mg/kg feed increases the growth rate and/or improves the feed conversion in freshly weaned nursery pigs.
Male pigs (barrows) were used in this study. Pigs were weaned at approximately 3 weeks of age, transferred to the nursery, and randomly allotted to 24 nursery pens with 4 pigs per pen. One of 2 dietary treatments, untreated controls (feed without supplement) or LDPP-treatment (0.2 mg LDPP/kg feed), was assigned to each pen, such that 12 pens of 4 pigs were used to evaluate the effect of each diet. Premixes of the treatment compounds were added at 0.1% to mixed diets, which were then pelleted. Phase 1 diet was fed at 6 lb/pig from day 0 to approximately day 8 post-weaning. On day 8 post-weaning, pigs were switched to 12 lb/pig Phase 2 diet which expired approximately on day 18. Once the Phase 2 diet had been consumed, pigs were switched to Phase 3 diet and maintained until termination of the study on day 42. No antibiotics were added to any diet. Diets were formulated to meet or exceed all the nutrient requirements based on the 2012 NRC specifications. Pigs received diets and water ad libitum. Pigs were weighed individually on days 0 and 42 of the experiment. Feed intake per pen was monitored for the weigh period. Although individual pig weights were obtained, the pen was the experimental unit. On day 42, the study was terminated and untreated pigs were retained in the food chain while the treatment pigs were euthanized.
Pen data were converted into individual pig data by dividing by the number of pigs. For three pens in which pigs were euthanized, a time-fractional pig number was used. Body weight gain and calculated feed consumption data were analyzed by pairwise T-test. The overall (true) feed conversion for each treatment was determined by dividing total consumed feed by total weight gains of all pens of each treatment. Treatment differences in feed conversion were statistically evaluated by non-parametric Mann Whitney U test of pen feed conversion data.
For constant body weight gain analyses, the time on feed of the LDPP treated group was modeled to match the weight gain of the untreated control group. Daily body weights and weight gains were modeled by linear interpolation between weights on days 0 and 42. […] From interpolated daily body weight data, daily feed consumption was first calculated as 5% of body weight. The sum of these daily feed uptakes was then divided by the actual weighed feed uptake of each pen, and daily feed uptakes were multiplied by this fraction to arrive at the precise weighed feed uptake per pen. These calculated daily feed uptakes were used to calculate feed uptake by changed times on feed for the LDPP treatment group. Mean feed uptake of the LDPP treatment group was then calculated by subtracting for each pen the previously found day 42 and 41 and the fractional day 40 feed uptake.
Body weight gain and feed consumption data were analyzed by one-way ANOVA and Student's T-test. Differences in feed conversion rates were evaluated from pen FCR data by non-parametric Mann Whitney U test.

In another series the test system is broiler chickens. The experiment in a line: Growth rate and feed conversion in broiler chickens fed supplemented feed. Type of series: in vivo. Conditions: for feed conversion rate at constant body weight gain: LDPP 0.2 mg/kg feed, bacitracin 50 mg/kg feed. As for the experimental part:
The objective of this experiment was to evaluate if supplementation of feed with L-lactate-D-alanine-L-glutamine palmityl ester (LDPP) at 0.2 mg/kg feed increases the growth rate and/or improves the feed conversion in broiler chickens, i.e., if it promotes growth by making broiler chickens grow faster and/or require less feed for the same amount of gain in body weight. A secondary objective was to compare the effect of LDPP to that of bacitracin, an industry-standard growth promoting antibiotic.
Freshly hatched female Ross 708 broiler chickens were housed for as single flock for 21 days on a floor pen with used bedding. All chickens received crumbled untreated standard Aviagen 708 starter and grower feeds during this time, with 80% recommended crude protein and without anti-coccidial supplement. After 3 weeks, the chickens were grouped into 38 replicate floor pens of 25 chickens with fresh bedding. Chickens were fed for 24 days from day 21 through termination on day 44 standard crumbled finisher Aviagen 708 finisher feed with 100% protein and 0.0125% amprolium anti-coccidial inclusion. Feed and water were available ad libitum throughout the trial. Thirteen pens each were assigned to untreated controls (feed without supplement) and LDPP-treatment (0.2 mg LDPP/kg feed), and 12 pens were assigned to bacitracin treatment (50 mg bacitracin/kg feed). The experimental unit was the pen rather than individual chickens. Pen weights of chickens were determined on day 21 and 44. Finisher feed uptake was be recorded, and on day 44 residual feed was determined, and the experiment was terminated.
For constant time analyses of the complete 24-day duration of the feeding experiment, the overall (true) feed conversion for each treatment group was determined by dividing total consumed feed by total weight gains of all pens of each treatment group.
For constant body weight gain analyses, the time on feed of the bacitracin and LDPP treated groups was modeled to match the weight gain of the untreated control group. Based on the closely matching body weights and weight gains of standard female Ross 708 broilers, body weight gains per chicken on the last day 44 of the experiment were calculated as the 0.04781 fraction of pen body weight gain day 21-44/surviving chickens per pen. […] Similarly, feed consumption per chicken on day 44 was calculated as the 0.05867 fraction of pen feed uptake day 21-44/surviving chickens per pen. Mean feed uptake per treatment group was then calculated by subtracting the previously found fractional daily feed uptake from each pen.
Body weight gain and feed consumption data were analyzed by one-way ANOVA and Tukey […] connection for multiple comparisons. Group differences in feed conversion rates were evaluated from pen FCR data by non-parametric Mann Whitney U test.

Setting [1] is: modeled, 1,653 g constant weight gain.

Peptide text beside a SMILES is read from it.

With `CCCCCCCCCCCCCCCCOC(=O)[C@H](CCC(N)=O)NC(=O)[C@@H](C)NC(=O)[C@H](C)O` [LDPP, hexadecyl (2S)-5-amino-2-[[(2R)-2-[[(2S)-2-hydroxypropanoyl]amino]propanoyl]amino]-5-oxo-pentanoate], in the series with nursery pigs (42 days), the “improvement of feed conversion rate at constant time versus untreated” value turned out to be 3.8%. For the same compound, the “feed conversion rate at constant time” value with nursery pigs (42 days, total consumed feed / total weight gain, untreated 1.479) stood at 1.423; in the series on broiler chickens (0.2 mg/kg feed, 24 days, total consumed feed / total weight gain, untreated 1.818), 1.805. In addition, the “morbidity and mortality rates between groups” value with nursery pigs (day 0-42) is listed as “did not differ significantly”; with broiler chickens (0.2 mg/kg feed, day 21-44), “did not differ significantly”. For the same compound, the “body weight gain per pig” value in the series with nursery pigs (day 0-42 (constant time)) is 23.826 kg. The “increase of weight gain versus untreated nursery pigs” value in the series on nursery pigs (day 0-42 (constant time), control 22.076 kg) was determined as 7.9%. For the same compound, the “improvement of feed conversion rate at constant body weight gain versus untreated” value is on record as 5.5% with nursery pigs (modeled constant weight gain) and 1.7% in the series on broiler chickens (0.2 mg/kg feed, modeled constant weight gain). In addition, the “more rapid growth compared to controls” value in the series with nursery pigs (modeled constant weight gain) was found to be 2.1 days. Besides, the “feed conversion rate at constant body weight gain” value with nursery pigs (modeled, 22.076 kg constant weight gain) was found to be 1.396; in the series with broiler chickens (setting [1]), 1.787. The “time on feed required for weight gain identical to untreated controls” value is on record as 39.921 days in the series with nursery pigs (modeled, 22.076 kg constant weight gain, controls 42 days) and 23.13 days in the series on broiler chickens (0.2 mg/kg feed, modeled, 1,653 g constant weight gain, controls 24 days). The “body weight gain per chicken” value in the series with broiler chickens (0.2 mg/kg feed, day 21-44 (24 days constant time)) was 1,725 g. Also, the “increase of weight gain versus untreated control chickens” value in the series with broiler chickens (0.2 mg/kg feed, day 21-44 (24 days constant time), control 1,653 g) worked out at 4.4%.

With `CC[C@H](C)[C@H](N)C1=N[C@H](C(=O)N[C@@H](CC(C)C)C(=O)N[C@H](CCC(=O)O)C(=O)N[C@H](C(=O)N[C@H]2CCCCNC(=O)[C@H](CC(N)=O)NC(=O)[C@@H](CC(=O)O)NC(=O)[C@H](Cc3cnc[nH]3)NC(=O)[C@@H](Cc3ccccc3)NC(=O)[C@H]([C@@H](C)CC)NC(=O)[C@@H](CCCN)NC2=O)[C@@H](C)CC)CS1` [bacitracin, reference compound] (HELM PEPTIDE1{[CC[C@H](C)[C@H](N)C1=N[C@H](C(=O)[*:2])CS1].L.[dE].I.K.[NCCC[C@@H](N[*:1])C(=O)[*:2]].I.[dF].H.[dD].N}$PEPTIDE1,PEPTIDE1,5:R3-11:R2$$$V2.0), in the series with broiler chickens (setting [1]), the “feed conversion rate at constant body weight gain” value came out at 1.827.

The record behind these values is patent US12492222B2, “Lipophilic enantiomers of desacetylglucosamine muramyl dipeptide with anti-inflammatory and growth promoting activity” (Nutrivert Inc., priority 2020, dated 2025).
